# Read-outs that look alike come from different tables or passages of the source.
# Experiments:
# [1] = Stability in SGF; assay type: in vitro ADME
# [2] = Plasma stability; assay type: in vitro ADME
# [3] = In vivo pharmacokinetics and brain distribution, single i.v. or p.o. dose; parameters: species or system male C57BL/6 mice; conditions: mice; for clearance / bioavailability: male, C57BL/6, mouse, plasma; for clearance: read-out: PK Clearance; for bioavailability: po, read-out: Oral Bioavailablility
# Description: The pharmacokinetics and brain distribution of the compounds described herein was determined in male C57BL/6 mice following single intravenous or oral dose administration. A group of 54 male mice were divided into two groups of 27 mice. […] Blood samples were collected pre-dose and at 0.08, 0.25, 0.5, 1, 2, 4, 8, and 24 h post-dose (i.v.), and pre-dose, and at 0.25, 0.5, 1, 2, 4, 6, 8 and 24 h post-dose (p.o.). Blood was collected from sets of three mice at each time point in labeled microcentrifuge tubes containing K2EDTA as anticoagulant. Plasma samples were separated by centrifugation of whole blood and stored below −70° C. until bioanalysis. After collecting blood samples, mice were humanely euthanized by CO2 asphyxiation and brain was collected at the same time points. Following collection, the brain samples were washed in ice-cold phosphate buffer saline (pH 7.4), gently dried on filter paper, weighed and placed in polypropylene tubes. Further brain samples were homogenized using phosphate buffer saline pH 7.4 and the total homogenate volume was thrice the brain weight. The samples were then stored below −70° C. until bioanalysis. All samples were processed for analysis by protein precipitation using acetonitrile and analyzed with fit-for-purpose LC/MS/MS method (LLOQ: 1.01 ng/mL for plasma and brain). Pharmacokinetic parameters were calculated using the non-compartmental analysis tool of Phoenix WinNonlin (Version 6.3).
# [4] = test system: oligomers in Line 61 ASYN transgenic mouse; assay: A11 antibody dot blot of oligomeric proteins in cortical homogenates; assay type: in vivo; conditions: 5 mg/kg; p<0.001 vs. vehicle-treated ASYN transgenic mice
# Description: (§1) Example 1 was evaluated in a transgenic mouse model of PD overexpressing human wild-type ASYN under the Thy-1 promoter (also referred to as the Line 61 ASYN transgenic mouse), by administering Example […] 0, 1, or 5 mg/kg (i.p.) once daily (five days per week) for three months and then assessing PD-relevant sensorimotor performance, biochemical alterations, and neuropathological changes in ASYN and related proteins.
# (§2) Biochemical evaluations of oligomeric proteins using A11 antibody dot blot methods (including ASYN) in cortical homogenates were performed.
# [5] = test system: Line 61 ASYN transgenic mice; assay: Fecal boli counts in a novel environment; assay type: in vivo, mouse
# Description: An earlier published study included a report that Line 61 ASYN transgenic mice have decreased colonic motility, fecal output, and weight (Wang, L. et al. Neurogastroenterol. Motil. 2012, 24(9), e425-436). For the present study, an assessment of fecal boli counts was conducted in conjunction with a spontaneous locomotor activity test session. At the conclusion of a five-minute test session, the experimenter counted the number of fecal boli present in the test chamber, and the results are presented in FIG. 9.
# [6] = test system: PDNG78 transgenic mice; assay: Longitudinal retinal imaging of ASYN-GFP; assay type: in vivo, mouse; conditions: 5 mg/kg i.p., after approximately 60 days through 90 days
# Description: A total of four imaging sessions were conducted, including a baseline prior to starting treatments and three subsequent imaging sessions at approximately one-month intervals.
# [7] = test system: Line 61 ASYN transgenic mouse; assay: Round Beam Task, sensorimotor impairment; assay type: in vivo; conditions: for number of slips, Round Beam Task: Example 6A, three months, vs. vehicle-treated transgenic mice; for number of slips, Round Beam Motor Performance assay: Example 6B
# Description: The Round Beam Task was used to assess sensorimotor impairments, using number of slips as the primary outcome measure (FIG. 4).
# [8] = test system: transgenic ASYN protein in Line 61 ASYN transgenic mouse; assay: Western Blot analysis of cerebral cortical and hippocampal brain homogenates; assay type: in vivo
# Description: as §1, §2
# [9] = test system: ASYN in Line 61 ASYN transgenic mouse; assay: ASYN immunolabeling in cortical neuropil and neuronal cell bodies; assay type: in vivo; conditions: for alpha-synuclein immunolabeling in cortical neuropil: p<0.0001 vs. vehicle-treated ASYN transgenic mice
# Description: These neuropathological findings were reconfirmed in the current study using the methods described by Masliah and colleagues. Example 1 administration (1 and 5 mg/kg dosing) produced statistically significant decreases in ASYN levels as determined by effects on ASYN immunolabeling (FIGS. 6 and 7). There was a statistically significant increase in ASYN immunolabeling with the Millipore anti-alpha-synuclein antibody in the cortical neuropil (****p<0.0001) (FIG. 6A) and in neuronal cell bodies of ASYN transgenic mice (**p<0.01) (FIG. 6B) relative to non-transgenic/vehicle controls.
# [10] = test system: cardiac ASYN in Line 61 ASYN transgenic mice; assay: Post-mortem Western blot of cardiac ASYN; assay type: in vivo, mouse; conditions: p<0.0001 vs. vehicle-treated ASYN transgenic mice
# Description: Like bowel dysfunction, alterations in cardiac biochemistry and function may precede Parkinson's disease diagnosis by 20 years or more. Well-characterized functional alterations in PD patients include altered heart rate variability and orthostatic hypotension (Kaufmann, H. et al., Handbook Clin. Neurol. 2013, 117, 259-278; Jain, S. et al., Neurobiol. Dis. 2012, 46(3), 572-580; Senard, J. M. et al., Rev. Neurol. (Paris) 2010, 166(10), 779-784; Post, K. K. et al., Parkinsonism Relat. Disord. 2008, 14(7), 524-531). These functional changes are accompanied by pathological findings of loss of myocardial noradrenergic innervation and the presence of ASYN aggregates in cardiac autonomic nerves (Jellinger, K. A., J. Neurol. Sci. 2011, 310 (1-2), 107-111). […] For the present study, post-mortem Western blot evaluations of cardiac ASYN by Western blot analysis were performed to confirm the presence in ASYN transgenic cardiac tissue and to evaluate the effects of Example 1 on transgenic cardiac levels of ASYN (FIG. 10). There was a statistically significant increase in detected cardiac levels of ASYN in vehicle-treated ASYN transgenic mice relative to vehicle-treated non-transgenic control mice (***p<0.001).
Stability in SGF [1],B:P ratio (PO) ([3]; at 10 mg/kg),bioavailability ([3]; at 10 mg/kg),B:P ratio (IV) ([3]; at 10 mg/kg),Plasma Stability ([2]; @ 120 min),"clearance ([3]; iv, at 10 mg/kg)",Structure (SMILES),other results
stable,0.4,53%,2.0,100% @,4.86 L/h/kg,"CCCCC(Cc1c[nH]c2ccccc12)NC(=O)c1cnc(N2CCN(C)CC2)s1 (centres unmarked) [Example 1, N-(1-(1H-Indol-3-yl)hexan-2-yl)-2-(4-methylpiperazin-1-yl)thiazole-5-carboxamide]","oligomers (A11 immunostaining) in cytosolic fraction of frontal cortex [4]: statistically significant decrease in oligomers; number of fecal boli produced ([5]; ASYN transgenic mice, 0.5 mg/kg, p<0.05 vs. vehicle): restored function; number of fecal boli produced ([5]; ASYN transgenic mice, 1 mg/kg, p<0.001 vs. vehicle): restored function; number of fecal boli produced ([5]; non-transgenic mice): no effect; percentage of ASYN-GFP positive area in retinal images ([6]; p<0.001 vs. vehicle): decreased; number of ASYN-GFP positive particles in retinae ([6]; p<0.01 vs. vehicle): decreased; number of slips, Round Beam Task ([7]; 1 mg/kg i.p. once daily): statistically significantly reductions in slips; number of slips, Round Beam Task ([7]; 5 mg/kg i.p. once daily): statistically significantly reductions in slips; number of slips, Round Beam Motor Performance assay ([7]; 0.5 mg/kg): non-statistically significant decrease in slips; number of slips, Round Beam Motor Performance assay ([7]; 1 mg/kg, p<0.01 vs. vehicle-treated ASYN transgenic mice): statistically significant improvement (decreased slips); transgenic ASYN protein levels [8]: statistically significant reductions; alpha-synuclein immunolabeling in cortical neuropil ([9]; 1 mg/kg): statistically significant decreases in alpha-synuclein immunolabeling; number of ASYN immunolabeled neuron cell bodies ([9]; 5 mg/kg): non-statistically significant decrease; alpha-synuclein immunolabeling in cortical neuropil ([9]; 5 mg/kg): statistically significant decreases in alpha-synuclein immunolabeling; cardiac levels of ASYN ([10]; 0.5 mg/kg): statistically significant normalizations of ASYN levels; cardiac levels of ASYN ([10]; 1 mg/kg): statistically significant normalizations of ASYN levels"
stable,0.05,79%,0.18,100% @,1.44 L/h/kg,"CCCCC(Cc1c[nH]c2ccccc12)NC(=O)c1cnc(CCN2CCN(C)CC2)s1 (centres unmarked) [Example 5, N-(1-(1H-Indol-3-yl)hexan-2-yl)-2-(2-(4-methylpiperazin-1-yl)ethyl)thiazole-5-carboxamide]",
,0.3,57%,1.4,,2.22 L/h/kg,"CCCC[C@@H](Cc1c[nH]c2ccccc12)NC(=O)c1cnc(N2CCN(C)CC2)s1 [Example 27, (S)-N-(1-(1H-Indol-3-yl)hexan-2-yl)-2-(4-methylpiperazin-1-yl)thiazole-5-carboxamide]",
,0.4,14%,2.1,,4.14 L/h/kg,"CCCC[C@H](Cc1c[nH]c2ccccc12)NC(=O)c1cnc(N2CCN(C)CC2)s1 [Example 28, (R)-N-(1-(1H-Indol-3-yl)hexan-2-yl)-2-(4-methylpiperazin-1-yl)thiazole-5-carboxamide]",

# The remaining lines, values behind:
Structure (SMILES),Stability in SGF [1],B:P ratio (PO) ([3]; at 10 mg/kg),bioavailability ([3]; at 10 mg/kg),B:P ratio (IV) ([3]; at 10 mg/kg),Plasma Stability ([2]; @ 120 min),"clearance ([3]; iv, at 10 mg/kg)",other results
"CCCCNC(=O)C(Cc1c[nH]c2ccccc12)NC(=O)c1cnc(N2CCNCC2)s1 (centres unmarked) [Comp. A, reference compound]",stable,0.05,,,,,"Plasma Stability ([2]; @ 60 min): 35% @; clearance ([3]; intravenous, at 10 mg/kg): 4.26 L/h/kg"
"CCCNC(=O)NC(Cc1c[nH]c2ccccc12)NC(=O)c1cnc(N2CCN(C)CC2)s1 (centres unmarked) [Comp. B, reference compound]",unstable,0.08,14%,0.1,,,"Plasma Stability ([2]; @ 60 min): 89% @; clearance ([3]; intravenous, at 10 mg/kg): 15.5 L/h/kg"
"CN1CCN(CCc2ncc(C(=O)NCCc3c[nH]c4ccccc34)s2)CC1 [Example 4, N-(2-(1H-Indol-3-yl)ethyl)-2-(2-(4-methylpiperazin-1-yl)ethyl)thiazole-5-carboxamide]",stable,0.1,100%,0.4,25% @,5.7 L/h/kg,
"CCCCC(Cc1c[nH]c2ccc(F)cc12)NC(=O)c1cnc(CCN2CCOCC2)s1 (centres unmarked) [Example 10, N-(1-(5-Fluoro-1H-indol-3-yl)hexan-2-yl)-2-(2-morpholinoethyl)thiazole-5-carboxamide]",,0.15,13%,,,,"clearance ([3]; intravenous, at 2 mg/kg): 4.5 L/h/kg; B:P ratio (IV) ([3]; at 2 mg/kg): 0.8"

# From patent publication US11078196B2, “Heteroaryl amides as inhibitors of protein aggregation” (UCB Biopharma SRL, priority 2014, dated 2021)
